In the Kinase Knowledgebase extract (Sharma et al. 2016):

Molecular target: MAPK14 (human) (UniProt Q16539)
Test: Inhibition of In vitro MAPK14 Kinase Activity

Sequence of MAPK14 (human) (Q16539 whole entry, looked up): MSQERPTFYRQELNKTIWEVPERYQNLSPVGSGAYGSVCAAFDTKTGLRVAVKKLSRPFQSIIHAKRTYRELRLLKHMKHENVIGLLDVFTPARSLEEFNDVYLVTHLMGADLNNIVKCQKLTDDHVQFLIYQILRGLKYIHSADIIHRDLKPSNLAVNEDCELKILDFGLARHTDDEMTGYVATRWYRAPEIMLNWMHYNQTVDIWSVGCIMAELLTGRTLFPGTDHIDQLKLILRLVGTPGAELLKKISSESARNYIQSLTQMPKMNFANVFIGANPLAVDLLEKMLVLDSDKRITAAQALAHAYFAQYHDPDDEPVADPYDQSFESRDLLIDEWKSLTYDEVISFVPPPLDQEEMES

| SMILES | IC50 [µM] |
| --- | --- |
| CN(C)CCn1ncc(OCc2ccc(F)cc2F)c(Br)c1=O | > 100 |
| O=c1c(Br)c(OCc2ccc(F)c(F)c2F)cnn1-c1c(Cl)cccc1Cl | 0.1 to 20 |
| O=c1[nH]ncc(OCCc2ccccc2)c1Br | > 100 |
| CC(C)Cc1c(OCCc2ccccc2)cnn(-c2c(Cl)cccc2Cl)c1=O | > 100 |
| COc1ccccc1COc1cnn(-c2c(Cl)cccc2Cl)c(=O)c1Br | 0.1 to 20 |
| O=c1c(Br)c(N2CCN(c3ccc(F)cc3)CC2)cnn1-c1c(Cl)cccc1Cl | > 100 |
| O=C(O)C(Nc1cnn(Cc2ccccc2)c(=O)c1Br)c1ccccc1 (configuration not stated) | > 100 |
| O=c1c(Br)c(OCc2ccccc2CCl)cnn1-c1c(Cl)cccc1Cl | 0.1 to 20 |
| CN(C)CCCn1ncc(OCc2ccc(F)cc2F)c(Br)c1=O | > 100 |
| O=c1c(Br)c(OCc2ccccc2)cnn1-c1ccccc1 | 20 to 40 |
| O=c1c(Br)c(NCc2cccc(Cl)c2)cnn1-c1c(Cl)cccc1Cl | 20 to 40 |
| O=c1c(Br)c(OCc2ccc(F)cc2F)cnn1CCO | 20 to 40 |
| O=c1c(Br)c(NCc2ccccc2)cnn1-c1c(Cl)cccc1Cl | 0.1 to 20 |
| O=c1c(Br)c(N(CCO)CCc2ccccc2)cnn1-c1c(Cl)cccc1Cl | 40 to 60 |
| C[C@@H](Nc1cnn(-c2c(Cl)cccc2Cl)c(=O)c1Br)c1ccccc1 | 80 to 100 |
| O=c1c(Br)c(OCc2ccc(F)cc2F)cnn1-c1c(Cl)c[n+]([O-])cc1Cl | 0.1 to 20 |
| O=c1c(Br)c(OCc2ccccc2)cnn1Cc1ccccc1 | > 100 |
| O=c1c(Br)c(NCCc2ccccc2)cnn1-c1c(Cl)cccc1Cl | 0.1 to 20 |
| Nc1ccccc1CNc1cnn(-c2c(Cl)cccc2Cl)c(=O)c1Br | 0.1 to 20 |
| O=c1c(Br)c(OCc2ccc(F)cc2F)cnn1-c1c(Cl)cccc1Cl | 0.1 to 20 |
| O=c1c(Br)c(NCC(O)c2ccccc2)cnn1-c1c(Cl)cccc1Cl (configuration not stated) | 0.1 to 20 |
| O=c1c(Br)c(NCCc2ccccc2F)cnn1-c1c(Cl)cccc1Cl | 0.1 to 20 |
| O=c1c(Br)c(OCCCc2ccccc2)cnn1-c1c(Cl)cccc1Cl | > 100 |

| SMILES | IC50 [µM] |
| --- | --- |
| O=c1cc(OCCc2ccccc2)cnn1-c1c(Cl)cccc1Cl | 40 to 60 |
| C[C@H](Nc1cnn(-c2c(Cl)cccc2Cl)c(=O)c1Br)c1ccccc1 | 0.1 to 20 |
| C[C@@H](Nc1cnn(-c2c(Cl)cccc2Cl)c(=O)c1Br)[C@@H](O)c1ccccc1 | > 100 |
| O=c1c(Br)c(OCCc2ccccc2)cnn1Cc1ccncc1 | > 100 |
| O=c1c(Br)c(OCCc2ccccc2)cnn1CCO | > 100 |
| O=c1c(Br)c(NC(CO)Cc2ccccc2)cnn1-c1c(Cl)cccc1Cl (configuration not stated) | > 100 |
| CN(CCc1ccccc1)c1cnn(-c2c(Cl)cccc2Cl)c(=O)c1Br | 20 to 40 |
| O=c1c(Oc2ccccc2)c(OCCc2ccccc2)cnn1-c1c(Cl)cccc1Cl | > 100 |
| O=c1c(Br)c(NCC2CCCO2)cnn1-c1c(Cl)cccc1Cl (configuration not stated) | > 100 |
| COc1c(OCCc2ccccc2)cnn(-c2c(Cl)cccc2Cl)c1=O | 60 to 80 |
| C[C@H](Nc1cnn(-c2c(Cl)cccc2Cl)c(=O)c1Br)[C@H](O)c1ccccc1 | > 100 |
| O=c1c(Br)c(OCc2ccccc2CO)cnn1-c1c(Cl)cccc1Cl | 0.1 to 20 |
| O=c1c(Br)c(N[C@H](CO)c2ccccc2)cnn1-c1c(Cl)cccc1Cl | 0.1 to 20 |
| CS(=O)(=O)OCc1ccccc1COc1cnn(-c2c(Cl)cccc2Cl)c(=O)c1Br | 0.1 to 20 |
| O=c1c(Br)c(NCc2ccc(F)cc2)cnn1Cc1ccccc1 | 60 to 80 |
| O=c1c(Br)c(OCc2ccc(F)cc2)cnn1-c1c(Cl)cccc1Cl | 0.1 to 20 |
| O=c1[nH]ncc(OCc2ccc(F)cc2F)c1Br | > 100 |
| NN(Cc1ccccc1)c1cnn(-c2c(Cl)cccc2Cl)c(=O)c1Br | 60 to 80 |
| O=C(O)CC(CNc1cnn(-c2c(Cl)cccc2Cl)c(=O)c1Br)c1ccc(Cl)cc1 (configuration not stated) | 80 to 100 |
| O=c1c(Br)c(OCc2ccc(F)cc2F)cnn1-c1c(Cl)cncc1Cl | 0.1 to 20 |
| O=c1c(Br)c(OCc2ccc(F)c(F)c2)cnn1-c1c(Cl)cccc1Cl | 0.1 to 20 |
| O=c1c(Br)c(NCC(CCO)c2ccc(Cl)cc2)cnn1-c1c(Cl)cccc1Cl (configuration not stated) | > 100 |
| O=c1c(Br)c(Sc2ccc(F)cc2)cnn1-c1c(Cl)cccc1Cl | > 100 |

| SMILES | IC50 [µM] |
| --- | --- |
| O=c1c(Br)c(OCc2c(F)cc(F)cc2F)cnn1-c1c(Cl)cccc1Cl | 0.1 to 20 |
| Cc1c(OCCc2ccccc2)cnn(-c2c(Cl)cccc2Cl)c1=O | 0.1 to 20 |
| CC(C)c1ccccc1Sc1cnn(Cc2ccccc2)c(=O)c1Br | > 100 |
| O=c1c(-c2ccccc2)c(OCCc2ccccc2)cnn1-c1c(Cl)cccc1Cl | > 100 |
| O=c1c(Br)c(OCc2ccc(F)cc2)cnn1Cc1ccccc1 | > 100 |
| O=c1c(Br)c(O)cnn1-c1c(Cl)cccc1Cl | > 100 |
| O=c1c(Br)c(Sc2ccc(F)cc2)cnn1Cc1ccccc1 | > 100 |
| O=c1c(Br)c(OCc2ccccc2)cnn1-c1c(Cl)cccc1Cl | 0.1 to 20 |
| O=c1c(Br)c(NCc2ccc(F)cc2)cnn1-c1c(Cl)cccc1Cl | 0.1 to 20 |
| O=c1c(Br)c(OCCc2ccccc2)cnn1Cc1ccccc1 | > 100 |
| O=c1c(Br)c(N[C@@H](CO)c2ccccc2)cnn1-c1c(Cl)cccc1Cl | > 100 |
| O=c1c(Br)c(N[C@@H]2C[C@H]2c2ccccc2)cnn1-c1c(Cl)cccc1Cl | > 100 |
| O=c1c(Br)c(OCc2ccc(F)cc2F)cnn1Cc1ccncc1 | 0.1 to 20 |
| CN(C)CCCn1ncc(OCCc2ccccc2)c(Br)c1=O | > 100 |
| O=c1c(Br)c(OCCc2ccccn2)cnn1-c1c(Cl)cccc1Cl | 0.1 to 20 |
| O=c1c(Br)c(Nc2ccccc2)cnn1-c1c(Cl)cccc1Cl | > 100 |
| O=C(O)C(Nc1cnn(-c2c(Cl)cccc2Cl)c(=O)c1Br)c1ccccc1 (configuration not stated) | > 100 |
| Cc1nc(Cn2ncc(OCc3ccc(F)cc3F)c(Br)c2=O)cs1 | 0.1 to 20 |
| CN(C)CCn1ncc(OCCc2ccccc2)c(Br)c1=O | > 100 |
| O=c1c(Br)c(OCCc2ccccc2)cnn1-c1c(Cl)cccc1Cl | 0.1 to 20 |
| O=c1c(Br)c(NCC2CCCO2)cnn1Cc1ccccc1 (configuration not stated) | > 100 |
